In US20230265151A1, “GIP/GLP1 CO-AGONIST COMPOUNDS” (priority 2020, published 2023):
Where two headings read alike, the source gives them in different places. *1 amine or outer side, *2 acyl side, *3 side chain or, on linkers, in order; H or OH if unused. Where a SMILES comes first, the peptide text is derived from it. Side-chain parts run from the residue outwards. [ ]: non-standard residue; d: D form. The star is where a group is joined. αMePhe(2-F) = C[C@](N)(Cc1ccccc1F)C(=O)O; γGlu = O=C(O)[C@H](CCC(=O)[*:2])N[*:1]; C14 diacid = O=C(O)CCCCCCCCCCCCC(=O)*; εLys = N[C@@H](CCCCN[*:1])C(=O)[*:2]; αMeY = C[C@](N)(Cc1ccc(O)cc1)C(=O)O; 4Pal = N[C@@H](Cc1ccncc1)C(=O)O; αMeL = CC(C)C[C@](C)(N)C(=O)O; Orn = NCCC[C@H](N)C(=O)O; AEEA = NCCOCCOCC(=O)O; Aib = CC(C)(N)C(=O)O

Key:
Type in all cases: cell-based
[1] = biological target: T1, hGIPR (Homo sapiens, UniProt P48546); experiment: Functional cAMP formation (HTRF) in HEK-293 clonal cells expressing hGIPR, 0.1% bovine casein, without or with 1.0% human serum albumin; conditions: for EC50: geometric mean, read-out: hGIPR EC50, nM (SEM, n); for Emax: read-out: hGIPR Emax, % ± SEM
T1 construct: expressed in transfected cells
T1 sequence (P48546 22-466): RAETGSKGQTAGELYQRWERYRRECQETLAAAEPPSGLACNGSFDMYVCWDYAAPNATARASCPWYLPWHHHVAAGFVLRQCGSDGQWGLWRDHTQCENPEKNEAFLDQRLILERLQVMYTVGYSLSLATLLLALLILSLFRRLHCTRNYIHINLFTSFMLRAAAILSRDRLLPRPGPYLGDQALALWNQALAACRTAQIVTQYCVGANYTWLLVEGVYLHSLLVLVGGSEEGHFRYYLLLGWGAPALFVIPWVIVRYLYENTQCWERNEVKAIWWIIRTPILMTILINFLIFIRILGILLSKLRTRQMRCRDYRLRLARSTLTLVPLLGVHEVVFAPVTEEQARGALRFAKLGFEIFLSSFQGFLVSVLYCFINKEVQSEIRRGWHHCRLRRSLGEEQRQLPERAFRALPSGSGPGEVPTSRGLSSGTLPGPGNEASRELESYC
In short: (§1)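 Cells were stimulated with peptide for 30 min at 37° C, then intracellular cAMP was measured by competitive HTRF (665/620 nm ratio) and converted to nM using a cAMP standard curve. Relative EC50 and Emax came from four-parameter logistic fits of percent maximal response against peptide concentration.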

[2] = biological target: T2, hGCGR (Homo sapiens, UniProt P47871); experiment: Functional cAMP formation (HTRF) in HEK-293 clonal cells expressing hGCGR, 0.1% bovine casein, without or with 1.0% human serum albumin; conditions: geometric mean, read-out: hGCGR EC50, nM (SEM, n)
T2 construct: expressed in transfected cells
In short: as §1

[3] = biological target: hGLP-1R (Homo sapiens, UniProt P43220); experiment: Functional cAMP formation (HTRF) in HEK-293 clonal cells expressing hGLP-1R, 0.1% bovine casein, without or with 1.0% human serum albumin; set-up: expressed in transfected cells; conditions: for EC50: geometric mean, read-out: hGLP-1R EC50, nM (SEM, n)
In short: as §1

[4] = 0.1% bovine casein and 1.0% human serum albumin, 37° C.
[5] = HEK293, 0.1% bovine casein and 1.0% human serum albumin, 37° C., percent of maximal response to GIP(1-42)NH2
[6] = cAMP, incubated at 37° C., 0.1% bovine casein (no human serum albumin)

Chain of hGLP-1R (P43220 24-463): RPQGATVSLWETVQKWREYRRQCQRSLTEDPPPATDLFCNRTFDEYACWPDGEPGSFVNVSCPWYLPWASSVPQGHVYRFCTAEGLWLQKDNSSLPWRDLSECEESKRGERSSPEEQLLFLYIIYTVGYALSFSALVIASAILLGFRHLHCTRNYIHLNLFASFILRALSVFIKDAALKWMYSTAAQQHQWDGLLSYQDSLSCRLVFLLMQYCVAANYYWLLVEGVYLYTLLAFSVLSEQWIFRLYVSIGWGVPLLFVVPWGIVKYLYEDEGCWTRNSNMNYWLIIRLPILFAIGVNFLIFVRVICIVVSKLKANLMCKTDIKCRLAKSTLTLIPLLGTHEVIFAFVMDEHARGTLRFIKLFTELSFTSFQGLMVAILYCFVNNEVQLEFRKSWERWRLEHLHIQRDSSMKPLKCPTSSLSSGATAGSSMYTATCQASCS
T2 sequence (P47871 26-477): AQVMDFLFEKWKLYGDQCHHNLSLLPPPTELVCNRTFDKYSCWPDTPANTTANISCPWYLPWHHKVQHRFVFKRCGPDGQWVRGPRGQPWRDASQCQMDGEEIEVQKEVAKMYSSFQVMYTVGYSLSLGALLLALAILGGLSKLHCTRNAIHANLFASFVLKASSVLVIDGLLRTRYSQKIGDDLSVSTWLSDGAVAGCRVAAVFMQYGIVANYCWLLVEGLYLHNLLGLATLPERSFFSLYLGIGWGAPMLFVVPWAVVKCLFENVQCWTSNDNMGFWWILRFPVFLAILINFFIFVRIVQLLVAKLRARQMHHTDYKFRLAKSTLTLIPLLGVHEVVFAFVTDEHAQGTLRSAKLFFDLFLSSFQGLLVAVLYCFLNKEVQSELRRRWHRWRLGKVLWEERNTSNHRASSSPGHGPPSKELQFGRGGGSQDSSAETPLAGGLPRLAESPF

EC50 [1, 4] [nM] | Emax [1, 5] [%] | Emax ([1]; HEK293, percent of maximal response to GIP(1-42)NH2, 37° C., 0.1% bovine casein, arithmetic mean) [%] | EC50 [1, 6] [nM] | EC50 [2, 4] [nM] | EC50 [2, 6] [nM] | EC50 [3, 4] [nM] | Emax ([3]; HEK293, percent of maximal response to GLP-1(7-36)NH2, 37° C., 0.1% bovine casein, arithmetic mean, read-out: hGLP-1R Emax, % ± SEM) [%] | EC50 [3, 6] [nM] | Structure (SMILES)
0.335 | 86.2 | 94.5 ± 0.288 | 0.018 | > 9950 | > 9950 | 11.3 | 95.1 ± 1.74 | 0.419 | CC[C@H](C)[C@H](NC(=O)[C@H](CC(C)C)NC(=O)[C@](C)(Cc1ccc(O)cc1)NC(=O)[C@@H](CCC(=O)O)NC(=O)[C@@H](NC(=O)[C@H](Cc1ccccc1)NC(=O)[C@H](CCC(=O)O)NC(=O)C(C)(C)NC(=O)[C@H](CCC(N)=O)NC(=O)[C@H](C)NC(=O)[C@H](CCCCNC(=O)COCCOCCNC(=O)COCCOCCNC(=O)[C@@H](N)CCCCNC(=O)CCCCCCCCCCCCC(=O)O)NC(=O)[C@H](CCCN)NC(=O)[C@H](CC(=O)O)NC(=O)[C@H](CC(C)C)NC(=O)[C@](C)(CC(C)C)NC(=O)[C@@H](NC(=O)[C@H](CO)NC(=O)[C@H](Cc1ccncc1)NC(=O)[C@H](CC(=O)O)NC(=O)[C@H](CO)NC(=O)[C@@H](NC(=O)[C@](C)(Cc1ccccc1F)NC(=O)[C@@H](NC(=O)CNC(=O)[C@H](CCC(=O)O)NC(=O)C(C)(C)NC(=O)[C@@H](N)Cc1ccc(O)cc1)[C@@H](C)O)[C@@H](C)O)[C@@H](C)CC)[C@@H](C)CC)C(=O)N[C@@H](CCC(=O)O)C(=O)NCC(=O)NCC(=O)N[C@@H](CCCCNC(=O)COCCOCCNC(=O)COCCOCCNC(=O)[C@@H](N)CCCCNC(=O)CCCCCCCCCCCCC(=O)O)C(N)=O [Example 185] (H-Y[Aib]EGT[αMePhe(2-F)]TSD[4Pal]SI[αMeL]LD[Orn]K([AEEA-AEEA-εLys-C14 diacid])AQ[Aib]EFI[dE][αMeY]LIEGGK([AEEA-AEEA-εLys-C14 diacid])-NH2; N-terminus assumed)
2.19 | 85.6 | – | 0.0274 | > 9950 | > 9950 | 24.3 | – | 0.371 | CC[C@H](C)[C@H](NC(=O)[C@H](CC(C)C)NC(=O)[C@](C)(Cc1ccc(O)cc1)NC(=O)[C@@H](CCC(=O)O)NC(=O)[C@@H](NC(=O)[C@H](Cc1ccccc1)NC(=O)[C@H](CCC(=O)O)NC(=O)C(C)(C)NC(=O)[C@H](CCC(N)=O)NC(=O)[C@H](C)NC(=O)[C@H](CCCCNC(=O)[C@@H](N)CCCCNC(=O)CC[C@H](NC(=O)CCCCCCCCCCCCC(=O)O)C(=O)O)NC(=O)[C@H](CCCN)NC(=O)[C@H](CC(=O)O)NC(=O)[C@H](CC(C)C)NC(=O)[C@](C)(CC(C)C)NC(=O)[C@@H](NC(=O)[C@H](CO)NC(=O)[C@H](Cc1ccncc1)NC(=O)[C@H](CC(=O)O)NC(=O)[C@H](CO)NC(=O)[C@@H](NC(=O)[C@](C)(Cc1ccccc1F)NC(=O)[C@@H](NC(=O)CNC(=O)[C@H](CCC(=O)O)NC(=O)C(C)(C)NC(=O)[C@@H](N)Cc1ccc(O)cc1)[C@@H](C)O)[C@@H](C)O)[C@@H](C)CC)[C@@H](C)CC)C(=O)N[C@@H](CCC(=O)O)C(=O)NCC(=O)NCC(=O)N[C@@H](CCCCNC(=O)[C@@H](N)CCCCNC(=O)CC[C@H](NC(=O)CCCCCCCCCCCCC(=O)O)C(=O)O)C(N)=O [Example 186] (H-Y[Aib]EGT[αMePhe(2-F)]TSD[4Pal]SI[αMeL]LD[Orn]K([εLys-γGlu-C14 diacid])AQ[Aib]EFI[dE][αMeY]LIEGGK([εLys-γGlu-C14 diacid])-NH2; N-terminus assumed)
